Where two headings read alike, the source gives them in different places.
How the values were obtained:
MiaPaCa-2 cells = test: Cytotoxicity assay in MiaPaCa-2 (XTT, 72 h); format: cell-based; conditions: for inhibition at 1 µM / inhibition at 10 µM / Cell cytotoxicity assay (% Inhibition at 1 μM) / Cell cytotoxicity assay (% Inhibition at 10 μM): DMSO control = 0% inhibition; for inhibition at 1 µM: read-out: Cell cytotoxicity assay (% Inhibition at 1 μM); for inhibition at 10 µM: read-out: Cell cytotoxicity assay (% Inhibition at 10 μM); for IC50: XTT, read-out: Cell cytotoxicity assay IC50 in range
Method: MiaPaCa-2 Cells (ATCC) were seeded in 96 well plates (Costar clear flat bottom) at a density of 3000 cells/well and allowed to settle overnight. Test compounds were dissolved in dimethyl sulphoxide (DMSO-Sigma Aldrich, D2650) and incubated with MiaPaCa-2 cells for 72 h. Post 72 h, 50 μl XTT (1 mg/mL; Invitrogen, X 6493) and PMS ([…]; Sigma Aldrich, P9625) reagents were added to the cells in 100 μl of cDMEM (Sigma Aldrich-D5648)+10% FBS (Hyclone-5430088-03)+1×Pen Strep (Sigma Aldrich-P0781). After 1 hour incubation with XTT and PMS absorbance was monitored with Spectramax M3 (Molecular Device). Percentage inhibition of proliferation at 10 μM and 1 μM concentrations was calculated by considering DMSO control as 0% inhibition. IC50 values were plotted using Graph pad prism software (Graph pad Inc, La Jola, Calif., USA).

[1] = biological target: T1, recombinant NAMPT wild type protein (Homo sapiens, UniProt P43490); test: NAMPT fluorescence assay; format: biochemical; conditions: 50 ng NAMPT, 2 μM Nam, 10 point dose response; read-out: Fluorescence assay IC50 in range
T1 construct: made in house; host or cells: E. coli
Method: The enzymatic assay was standardized using in-house recombinant NAMPT wild type protein from E. coli expression & NAM (Cat #47865-U) as a substrate. The product NMN formed after enzymatic reaction was derivatized to a fluorescent derivative through sequentially reacting with acetophenone/KOH and formic acid. The derivatized fluorescent NMN derivative was detected at 382 nm excitation wavelength and a 445 nm emission wavelength. […] The fluorescence was measured (Excitation at 382 nm & Emission at 445 nm) using Victor^3 V fluorimeter. The data is calculated using the RFU values. The final concentration of DMSO was 2% in the assay. Each individual IC50 was determined using 10 point dose response curve generated by GraphPad Prism software Version 4 (San Diego, Calif., USA) using nonlinear regression curve fit for sigmoidal dose response (variable slope).

T1 sequence (P43490 whole entry): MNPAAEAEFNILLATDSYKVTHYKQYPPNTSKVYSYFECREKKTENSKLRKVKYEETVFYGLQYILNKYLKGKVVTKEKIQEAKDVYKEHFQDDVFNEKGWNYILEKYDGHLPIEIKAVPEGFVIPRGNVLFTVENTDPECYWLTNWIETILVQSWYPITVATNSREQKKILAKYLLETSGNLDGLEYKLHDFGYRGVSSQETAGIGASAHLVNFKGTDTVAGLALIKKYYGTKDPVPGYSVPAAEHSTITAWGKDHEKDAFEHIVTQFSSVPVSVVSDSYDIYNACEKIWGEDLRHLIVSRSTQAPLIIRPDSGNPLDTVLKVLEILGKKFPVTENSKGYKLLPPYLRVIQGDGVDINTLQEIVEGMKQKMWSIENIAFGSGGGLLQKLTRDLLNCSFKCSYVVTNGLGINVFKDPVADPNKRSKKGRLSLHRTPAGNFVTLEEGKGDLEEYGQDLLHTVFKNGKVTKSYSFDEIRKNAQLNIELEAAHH

Compound	IC50 [1] [nM]	inhibition at 1 µM (MiaPaCa-2 cells; Homo sapiens, MIA PaCa-2, 72 h) [%]	inhibition at 10 µM (MiaPaCa-2 cells; Homo sapiens, MIA PaCa-2, 72 h) [%]	IC50 (MiaPaCa-2 cells; Homo sapiens, MIA PaCa-2, 72 h) [nM]	Cell cytotoxicity assay (% Inhibition at 1 μM) (MiaPaCa-2 cells) [%]	Cell cytotoxicity assay (% Inhibition at 10 μM) (MiaPaCa-2 cells) [%]	IC50 (MiaPaCa-2 cells) [nM]
O=C(NCC1=NOC(COc2ccncc2-c2ccc(F)nc2)C1)c1ccc2nccn2c1 (racemic) [Example 3, N-((5-(((6′-fluoro-[3,3′-bipyridin]-4-yl)oxy)methyl)-4,5-dihydroisoxazol-3-yl)methyl)-imidazo[1,2-a]pyridine-6-carboxamide]		5	80	> 250			
O=C(NCC1=NOC(COc2cc(F)cnc2-c2cccnc2)C1)c1ccc2nccn2c1 (racemic) [Example 15, N-((5-(((5-fluoro-[2,3′-bipyridin]-3-yl)oxy)methyl)-4,5-dihydroisoxazol-3-yl)methyl)imidazo[1,2-a]pyridine-6-carboxamide]		99	99	50 to 250			
N#Cc1ccc(OCC2CC(CNC(=O)c3ccc4nccn4c3)=NO2)c(-c2ccc(F)nc2)n1 (single isomer, unassigned) [Example 10a, N-((5-(((6-cyano-6′-fluoro-[2,3′-bipyridin]-3-yl)oxy)methyl)-4,5-dihydroisoxazol-3-yl)methyl)imidazo[1,2-a]pyridine-6-carboxamide]		100	100	< 50			
O=C(NCC1=NOC(COc2cc(Cl)cnc2-c2ccc(F)nc2)C1)c1ccc2nccn2c1 (single isomer, unassigned) [Example 14a, N-((5-(((5-chloro-6′-fluoro-[2,3′-bipyridin]-3-yl)oxy)methyl)-4,5-dihydroisoxazol-3-yl)methyl)imidazo[1,2-a]pyridine-6-carboxamide]		93	98				> 250
O=C(NCC1=NOC(COc2cc(Cl)cnc2-c2cccnc2)C1)c1ccc2nccn2c1 (racemic) [Example 13, N-((5-(((5-chloro-[2,3′-bipyridin]-3-yl)oxy)methyl)-4,5-dihydroisoxazol-3-yl)methyl)imidazo[1,2-a]pyridine-6-carboxamide]	< 10	95	95	50 to 250			
CNC(=O)c1ccc(-c2ncccc2OCC2CC(CNC(=O)c3ccc4nccn4c3)=NO2)cc1F (racemic) [Example 6, N-((5-(((2-(3-fluoro-4-(methylcarbamoyl)phenyl)pyridin-3-yl)oxy)methyl)-4,5-dihydroisoxazol-3-yl)methyl)imidazo[1,2-a]pyridine-6-carboxamide]	> 25	15	80	> 250			
Cn1cc(-c2ncccc2OCC2CC(CNC(=O)c3ccc4nccn4c3)=NO2)cn1 (racemic) [Example 5, N-((5-(((2-(1-methyl-1H-pyrazol-4-yl)pyridin-3-yl)oxy)methyl)-4,5-dihydroisoxazol-3-yl)methyl)imidazo[1,2-a]pyridine-6-carboxamide]	< 10	47	95	50 to 250			
O=C(NCC1=NOC(COc2cc(Cl)cnc2-c2cccnc2)C1)c1ccc2nccn2c1 (single isomer, unassigned) [Example 13b, N-((5-(((5-chloro-[2,3′-bipyridin]-3-yl)oxy)methyl)-4,5-dihydroisoxazol-3-yl)methyl)imidazo[1,2-a]pyridine-6-carboxamide]	10 to 25				100	100	< 50
O=C(NCC1=NOC(COc2cccnc2-c2cccnc2)C1)c1ccc2nccn2c1 (single isomer, unassigned) [Example 7b, N-((5-(([2,3′-bipyridin]-3-yloxy)methyl)-4,5-dihydroisoxazol-3-yl)methyl)-imidazo[1,2-a]pyridine-6-carboxamide]							> 250
N#Cc1ccc(OCC2CC(CNC(=O)c3ccc4nccn4c3)=NO2)c(-c2ccc(F)nc2)n1 (single isomer, unassigned) [Example 10b, N-((5-(((6-cyano-6′-fluoro-[2,3′-bipyridin]-3-yl)oxy)methyl)-4,5-dihydroisoxazol-3-yl)methyl)imidazo[1,2-a]pyridine-6-carboxamide]					100	100	
O=C(NCC1=NOC(COc2cc(Cl)cnc2-c2ccc(F)nc2)C1)c1ccc2nccn2c1 (single isomer, unassigned) [Example 14b, N-((5-(((5-chloro-6′-fluoro-[2,3′-bipyridin]-3-yl)oxy)methyl)-4,5-dihydroisoxazol-3-yl)methyl)imidazo[1,2-a]pyridine-6-carboxamide]					100	98	< 50
O=C(NCC1=NOC(COc2cccnc2-c2ccc(Cl)nc2)C1)c1ccc2nccn2c1 (single isomer, unassigned) [Example 8a, N-((5-(((6′-chloro-[2,3′-bipyridin]-3-yl)oxy)methyl)-4,5-dihydroisoxazol-3-yl)methyl)imidazo[1,2-a]pyridine-6-carboxamide]					10	10	> 10000

Now from value to compound, other results behind:

IC50 [1] [nM]	Compound	inhibition at 1 µM (MiaPaCa-2 cells; Homo sapiens, MIA PaCa-2, 72 h) [%]	inhibition at 10 µM (MiaPaCa-2 cells; Homo sapiens, MIA PaCa-2, 72 h) [%]	IC50 (MiaPaCa-2 cells; Homo sapiens, MIA PaCa-2, 72 h) [nM]	Cell cytotoxicity assay (% Inhibition at 1 μM) (MiaPaCa-2 cells) [%]	Cell cytotoxicity assay (% Inhibition at 10 μM) (MiaPaCa-2 cells) [%]	IC50 (MiaPaCa-2 cells) [nM]
10 to 25	N#Cc1ccc(OCC2CC(CNC(=O)c3ccc4nccn4c3)=NO2)c(-c2ccc(F)nc2)n1 (racemic) [Example 10, N-((5-(((6-cyano-6′-fluoro-[2,3′-bipyridin]-3-yl)oxy)methyl)-4,5-dihydroisoxazol-3-yl)methyl)imidazo[1,2-a]pyridine-6-carboxamide]	95	95	50 to 250			
< 10	O=C(NCC1=NOC(COc2cccnc2-c2ccc(F)nc2)C1)c1ccc2nccn2c1 (single isomer, unassigned) [Example 4b, N-((5-(((6′-fluoro-[2,3′-bipyridin]-3-yl)oxy)methyl)-4,5-dihydroisoxazol-3-yl)methyl)imidazo[1,2-a]pyridine-6-carboxamide]				95	94	< 50
> 25	O=C(NCC1=NOC(COc2cccnc2-c2ccc(Cl)nc2)C1)c1ccc2nccn2c1 (single isomer, unassigned) [Example 8b, N-((5-(((6′-chloro-[2,3′-bipyridin]-3-yl)oxy)methyl)-4,5-dihydroisoxazol-3-yl)methyl)imidazo[1,2-a]pyridine-6-carboxamide]				92	94	50 to 250
10 to 25	O=C(NCC1=NOC(COc2cc(F)cnc2-c2ccc(F)nc2)C1)c1ccc2nccn2c1 (single isomer, unassigned) [Example 9b, N-((5-(((5,6′-difluoro-[2,3′-bipyridin]-3-yl)oxy)methyl)-4,5-dihydroisoxazol-3-yl)methyl)imidazo[1,2-a]pyridine-6-carboxamide]				95	95	< 50
> 25	Cc1ccc(OCC2CC(CNC(=O)c3ccc4nccn4c3)=NO2)c(-c2ccc(F)nc2)n1 (racemic) [Example 12, N-((5-(((6′-fluoro-6-methyl-[2,3′-bipyridin]-3-yl)oxy)methyl)-4,5-dihydroisoxazol-3-yl)methyl)imidazo[1,2-a]pyridine-6-carboxamide]	96	95	< 50			
10 to 25	O=C(NCC1=NOC(COc2cccnc2-c2cccnc2)C1)c1ccc2nccn2c1 (racemic) [Example 7, N-((5-(([2,3′-bipyridin]-3-yloxy)methyl)-4,5-dihydroisoxazol-3-yl)methyl)-imidazo[1,2-a]pyridine-6-carboxamide]	90	90	50 to 250			
10 to 25	Cc1cnc(-c2ccc(F)nc2)c(OCC2CC(CNC(=O)c3ccc4nccn4c3)=NO2)c1 (single isomer, unassigned) [Example 11b, N-((5-(((6′-fluoro-5-methyl-[2,3′-bipyridin]-3-yl)oxy)methyl)-4,5-dihydroisoxazol-3-yl)methyl)imidazo[1,2-a]pyridine-6-carboxamide]				100	98	< 50
